Laboratory results as given in US7279321B2, “Methods for increasing the resistance of a host cell to aromatic carboxylic acids” (priority 2003, dated 2007).
Converted amounts (≈) assume the structure as drawn.

What was measured:
E. coli DPD2444 (yhcP−) = assay: microbe, parasite or virus in culture; format: cell-based
Protocol: (§1) Additional compounds were tested for growth inhibition of E. coli MG1655 (yhcP^+) and DPD2444 (yhcP^−) in Vogel-Bonner medium with glucose as the carbon source and with 0.01% tetrazolium violet added as an indicator of viability. A series of two-fold dilutions of each chemical was made to the wells of a clear 96-well microplate in 50 μl volume. To these wells was added 50 μl of an overnight culture in Vogel Bonner medium with glucose as a carbon source of either MG1655 or DPD2444 that had been previously diluted 500-fold into fresh medium. The plates were incubated at 37° C. without shaking for 16 to 18 hours. The purple color in each well was visually scored. A score of 4+ indicated full purple color equivalent to a no chemical control well. Scores of 3+, 2+, or 1+ indicated decreasing amounts of purple color. A score of − indicated the complete absence of color. The MIC was defined as the lowest tested concentration that gave complete absence of color. The rank of difference between strains was defined as the score of pigment color for E. coli MG1655 in wells containing the concentration of a given chemical at the MIC for DPD24444. When MG1655 had no color, the score was 0. When MG 1655 was scored at 1+, the score was 1, when scored at 2+, the score was 2, etc.

E. coli MG1655 (yhcP+) = assay: microbe, parasite or virus in culture; format: cell-based
Protocol: as §1

O=C(O)c1ccc(O)cc1 [pHBA, para-hydroxybenzoic acid]
MIC (E. coli DPD2444 (yhcP−); Escherichia coli, read-out: MIC, DPD2444 (yhcP−)): 12.5 mM (≈ 1730 µg/mL)
defined as substrate of the YhcP efflux pump by this genetic test (E. coli DPD2444 (yhcP−); MIC difference at least 2-fold and rank at least 2): substrates of the YhcP efflux pump
MIC (E. coli MG1655 (yhcP+); Escherichia coli, MG1655, read-out: MIC, MG1655 (yhcP+)): 100 mM (≈ 13800 µg/mL)
Rank Diff (E. coli MG1655 (yhcP+); score of pigment color for MG1655 at the MIC for DPD2444 (0 = no color, 4 = full purple color)): 4
